Measured values reported in paper PMC12567141, “Design, Synthesis and Biological Evaluation of Pyrazolopyrimidine Derivatives as Aryl Hydrocarbon Receptor Antagonists for Colorectal Cancer Immunotherapy” (Pharmaceutics, 2025).

What was measured:
AhR = AhR (Danio rerio, UniProt Q9YGV3); assay: IC50 determination, Cyp1a dual luciferase reporter assay in transfected COS-7 cells; type: cell-based; conditions: AhR2/ARNT-1c/Cyp1a-luciferase, TCDD 10 nM
Description: All experiments were conducted as described previously unless stated otherwise. COS-7 cells were seeded onto 24-well plate until approximately 65% confluency. The cells were transfected with ARNT-1c expression plasmid (50 ng), AhR2 expression plasmid (5 ng), Cyp1a-firefly luciferase reporter plasmid (20 ng) and pRL-TK Renilla luciferase plasmid (2 ng) using Lipofectamine 3000 (Thermo Fisher Scientific) according to the manufacturer’s protocol. The pEGFP-C1 plasmid (Clontech, Tempe, AZ, USA) was used to assess the transfection efficiency. At 5 h post transfection, serially diluted test compounds at indicated concentration were added to the cells. Simultaneously, TCDD (10 nM) or indicated compounds with the highest concentration were added in the control wells. At 1 h post compound treatment, TCDD (10 nM) was added to all wells except the control wells. At 18 h post TCDD treatment, the medium was removed, and the cells washed with Dulbecco’s phosphate buffered saline (DPBS) and harvested using 1x Passive Lysis Buffer (Promega, Madison, WI, USA). The dual luciferase assay was carried out using a Dual-Luciferase Reporter Assay System (Promega, Madison, WI, USA) and an Orion L Microplate Luminometer (Titertek Berthold, Pforzheim, BW, Germany) as per manufacturer’s protocol. The relative light unit (RLU) values were normalized and expressed as toxic induced ratio (TIR). IC50 was determined using Prism 9.0 (GraphPad Software).

[1] = test system: PD-1 expression in Jurkat/PD-1 cells; assay: PD-1 expression by FACS in PHA-treated Jurkat/PD-1 cells; type: cell-based
Description: For analysis of PD-1 expression in PD-1-overexpressing Jurkat T cells (Jurkat/PD-1 cells), Jurkat/PD-1 cells in 24-well plates were treated with 2 μg/mL Phytohaemagglutinin (PHA) and incubated with 5 and 10 μM 7k for 24 h. Cells were collected were stained with APC-conjugated PD-1 Ab at 4 °C for 30 min (BioLegend). After washing with FACS buffer (Biolegend) three times, the cells were analysed using Becton Dickinson LSRFortessa^TM and analyzed with FlowJo software. Isotype-matched monoclonal antibodies were used as controls. The data were analysed using Flowjo analysis software (FlowJo LLC, Ashland, OR, USA).

[2] = test system: AhR, AhRR, and IDO-1 mRNA expression in MC38 and CT26 cells; assay: qRT-PCR of AhR downstream genes in kynurenine-stimulated cells; type: cell-based; conditions: 200 μM kynurenine-stimulated MC38 and CT26 cells, 24 h, qPCR
Description: MC38 and CT26 were treated with different concentrations of 7k and 200 μM Kynurenine for 24 h. RNA from treated cells was extracted and cDNA was synthesized using the ReverTraAce™ qPCR RT Kit (TOYOBO, Osaka, Japan), followed by evaluation of AhR, AhRR, and IDO-1 mRNA expression with quantitative real-time PCR. PCR conditions were 95 °C preincubation, maintained for 1 min, and then 1 cycle of 95 °C denaturation for 15 s, 55 °C annealing for 15 s, and 72 °C polymerization for 45 s. A total of 40 cycles were repeated. Advanced Relative Quantification analysis was used to confirm the structure of the expected quantitative real-time PCR product, and the variability of other gene amplification was calibrated by relative comparison with GAPDH expression (Table 1).

[3] = Pharmacokinetic study in mouse; type: in vivo, ICR mice; conditions: male, ICR, plasma
Description: To estimate the pharmacokinetic parameters in animals, the drug was administered via intravenous (I.V., 5 mg/kg) and oral (P.O., 10 mg/kg) routes in seven-week-old male ICR mice (Orient Bio Inc., Seongnam, Korea). Blood samples were collected at 0.083 (for I.V.), 0.5, 1, 2, 4, 8, and 24 h after drug administrations and then immediately centrifuged at 10,000× g for 3 min. The plasma concentrations of the drug were determined via LC-MS/MS. The plasma concentration–time profiles and pharmacokinetic parameters were estimated using the non-compartmental method with the nonlinear least squares regression program WinNonlin 5.3 (Pharsight, Mountain View, CA, USA).

[4] = test system: normal cells (CHO, L929, CCD-18Co); assay: Cell viability assay (CCK-8), normal cells; type: cell-based; conditions: 24 h, 7k: CHO, SR-1: CCD-18Co
Description: Chinese hamster ovary CHO cells, mouse fibroblast L929 cells, normal colon CCD18-Co cells, monkey kidney fibroblast COS-7 cells, colorectal cancer cells including HCT-116, RKO, SW480, SW620, CT26, and MC38 cells were purchased from ATCC (American Type Culture Collection). CHO, L929, Cos-7, and all cancer cells were maintained in RPMI 1640 or DMEM supplemented with 10% FBS (Gibco FBS; Thermo Fisher Scientific, Hanover Park, IL, USA) and 1% streptomycin/penicillin. CCD18-Co cells were cultured in high-glucose Dulbecco modified Eagle medium containing 10% FBS and 1% streptomycin/penicillin. All cells were grown in 5% CO2 at 37 °C. Mycoplasma testing was regularly performed every month using the BioMycoX Mycoplasma PCR Detection Kit (CellSafe, Yongin, Republic of Korea).
Cell viability was analyzed using a Cell Counting Kit-8 (Dojindo molecular technologies, Rockville, MD, USA). Cells were seeded in 96-well plates and treated with different concentrations of 7k. At the indicated time points, CCK-8 (10 μL/well) reagents were added to the cells, followed by further incubation at 37 °C for 90 min. The absorbance at 450 nm was measured using a plate reader (BioTek instruments, Winooski, VT, USA).

Chain of AhR (Q9YGV3 1-1027): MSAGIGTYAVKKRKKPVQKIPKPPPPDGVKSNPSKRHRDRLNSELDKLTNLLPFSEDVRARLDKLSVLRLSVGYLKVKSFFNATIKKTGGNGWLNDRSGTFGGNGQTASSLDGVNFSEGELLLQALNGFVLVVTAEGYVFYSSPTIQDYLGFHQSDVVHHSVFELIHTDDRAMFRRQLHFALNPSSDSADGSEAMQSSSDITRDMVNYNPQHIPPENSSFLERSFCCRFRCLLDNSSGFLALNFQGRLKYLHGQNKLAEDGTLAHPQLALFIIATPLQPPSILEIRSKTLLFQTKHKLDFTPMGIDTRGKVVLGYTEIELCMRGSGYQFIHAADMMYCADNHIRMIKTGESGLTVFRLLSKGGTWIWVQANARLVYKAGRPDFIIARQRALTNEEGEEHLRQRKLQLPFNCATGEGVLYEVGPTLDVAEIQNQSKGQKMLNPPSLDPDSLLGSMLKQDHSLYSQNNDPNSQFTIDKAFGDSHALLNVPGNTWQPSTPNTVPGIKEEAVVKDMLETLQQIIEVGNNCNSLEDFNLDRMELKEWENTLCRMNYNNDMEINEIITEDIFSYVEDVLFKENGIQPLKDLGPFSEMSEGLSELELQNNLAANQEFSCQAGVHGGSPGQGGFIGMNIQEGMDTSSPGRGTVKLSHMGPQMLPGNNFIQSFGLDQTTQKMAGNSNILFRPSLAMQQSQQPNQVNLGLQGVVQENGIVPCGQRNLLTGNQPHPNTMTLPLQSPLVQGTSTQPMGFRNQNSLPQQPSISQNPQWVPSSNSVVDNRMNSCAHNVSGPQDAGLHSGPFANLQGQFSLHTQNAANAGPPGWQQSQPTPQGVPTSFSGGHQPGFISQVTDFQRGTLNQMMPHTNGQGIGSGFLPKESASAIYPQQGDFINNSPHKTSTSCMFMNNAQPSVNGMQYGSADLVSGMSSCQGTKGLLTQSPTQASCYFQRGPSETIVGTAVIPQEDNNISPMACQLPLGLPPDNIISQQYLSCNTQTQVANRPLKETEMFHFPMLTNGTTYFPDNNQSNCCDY
Chain of AhR (Q64FF9 1-503 partner): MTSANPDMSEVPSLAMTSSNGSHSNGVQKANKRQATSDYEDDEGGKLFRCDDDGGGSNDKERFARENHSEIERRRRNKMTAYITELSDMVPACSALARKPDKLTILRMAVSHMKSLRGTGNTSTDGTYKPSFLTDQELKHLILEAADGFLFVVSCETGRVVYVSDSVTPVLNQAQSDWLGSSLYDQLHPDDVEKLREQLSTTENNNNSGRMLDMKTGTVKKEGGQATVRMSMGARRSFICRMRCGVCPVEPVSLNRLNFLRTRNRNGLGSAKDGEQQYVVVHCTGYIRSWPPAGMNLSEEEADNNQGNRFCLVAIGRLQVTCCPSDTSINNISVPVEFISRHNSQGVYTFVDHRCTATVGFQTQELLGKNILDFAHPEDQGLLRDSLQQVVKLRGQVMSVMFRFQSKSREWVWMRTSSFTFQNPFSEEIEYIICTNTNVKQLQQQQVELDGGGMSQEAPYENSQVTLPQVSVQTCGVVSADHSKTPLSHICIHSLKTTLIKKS

**Q.** Which results are given for CC(C)n1cc2nc(-c3cc(F)cc(F)c3)nc(NCCc3c[nH]c4ccccc34)c2n1 [Compound 7k, N-(2-(1H-indol-3-yl)ethyl)-5-(3,5-difluorophenyl)-2-isopropyl-2H-pyrazolo [4,3-d]pyrimidin-7-amine]?
**A.** IC50 (AhR): 13.7 nM; PD-1 expression [1]: reduced PD-1 expression; expression levels of AhR, AhRR, and IDO-1 [2]: reduced the expression levels of AhR, AhRR, and IDO-1; AUC(0-inf) ([3]; IV, 5 mg/kg): 5860 ng·h/mL; AUC(0-t) ([3]; IV, 5 mg/kg): 5750 ± 740 ng·h/mL; clearance ([3]; IV, 5 mg/kg): 14.3 mL/min/kg; half-life ([3]; IV, 5 mg/kg): 4.54 h; Vd ([3]; IV, 5 mg/kg, read-out: Vss (converted)): 3.91 L/kg; AUC(0-inf) ([3]; PO, 10 mg/kg): 8230 ng·h/mL; AUC(0-t) ([3]; PO, 10 mg/kg): 8160 ± 3670 ng·h/mL; Cmax ([3]; PO, 10 mg/kg): 2380 ng/mL; Tmax ([3]; PO, 10 mg/kg): 0.67 ± 0.29 h; half-life ([3]; PO, 10 mg/kg): 3.77 h; bioavailability ([3]; PO, 10 mg/kg, read-out: Ft (%) bioavailability (converted)): 71%; cell viability of normal cells [4]: few antiproliferative effects
